According to patent US12139505B2, “Compositions useful in therapy of autophagy-related pathologies, and methods of making and using the same” (The University of Toledo, priority 2017, dated 2024):

Legend:
RG2 glioma cells [1] = experiment: Autophagic flux assay (LC3-II western blot in the presence of bafilomycin-A1); format: cell-based, rat
Protocol: In the assay, cells are treated with subtoxic concentrations of bafilomycin-A, which blocks lysosomal acidification. This prevents autophagosome fusion with lysosomes at a specific point. For example, RG2 glioma cells (or other cell types) are “clamped” by addition of 10-50 nM bafilomycin-A1 to block autophagosome fusion with lysosomes and eliminate autophagy clearance. Then, autophagy flux is measured by the conjugation of phosphatidylethanolamine to LC3-I, yielding an electrophoretically separable LC3-II by western blot. LC3-II acts as a link between nascent autophagosomes and cargo being directed into these structures. An autophagy enhancer will increase LC3-II in the presence of bafilomycin, whereas a compound that inhibits autophagy completion will not do so. Thus, the L3A-I to LC3A-II conversion in the presence of bafilomycin-A1 constitutes a valid measure of autophagy.
For the assays, rat glioma cells RG2 (ATCC® CRL-2433™; RG2 cells) were cultured. […] The cells were then incubated for an additional 4 h. At termination, the cell culture medium was removed, cells were washed with PBS and lysed on ice in Pierce RIPA buffer containing protease and phosphatase inhibitors.
Western Blotting: The proteins were electrophoresed and wet-blotted to polyvinylidine difluoride membranes, blocked overnight in 4% bovine serum albumin, and developed using antibodies obtained from Cell Signaling Technology (L3A: cat #. 4599; ULK1: cat #. 8054, ULK1(p757): cat #. 6880).
RG2 glioma cells were treated without drug (first column in FIG. 8A) or 4 h with 50 nM bafilomycin-A1 (BAF), the indicated concentration of LK, or the phosphonate analog 2-isopropyl-LK-3-phosphonate. The western blot results are shown in FIG. 8A, where the lower band corresponds to LC3-II. An increase in the intensity of this band in the presence of bafilomycin-A1 indicates increased autophagic flux. […] Similar results are shown in FIG. 9 with respect to the LK-P compound 2-butyl-lanthionine-phosphonate (also referred to as 2-n-butyl-lanthionine-phosphonate or 2-n-butyl-LK-P).
RG2 glioma cells (American Tissue Type Collection, ATTC, Rockville MD USA) were treated for 4 h with 50 nM bafilomycin-A1 (previously dissolved to 1000× final concentration in dimethylsulfoxide). Thirty minutes after addition of bafilomycin, cells were treated with test agents at 100× final concentration. Cells were lysed in RIPA buffer containing protease and phosphatase inhibitors. Protein concentration was assayed and normalized to constant values (typically 5-7 mg/mL). Proteins were electrophoresed across 4-20% polyacrylamide gels and wet blotted onto polyvinylidine difluoride (PVDF) membranes. Proteins were blotted with commercially available antibodies against LC3.

RG2 glioma cells [2] = experiment: Proliferative capacity of glioma cells, tetrazolium reduction assay; format: cell-based, rat
Protocol: Biomarkers of autophagy have been positively correlated with relatively better prognosis (longer patient lifespan) in humans suffering from high grade glioma. Accordingly, phosphonate analogs were tested for ability to reduce replicative capacity in RG2 glioma cells wherein the compounds increase autophagy. Cells were plated at low density (approximately 25,000 cells/[…]) using general cell culture methods, and treated with logarithmic dilutions of test agent. After 24 or 48 hours, cell number was estimated by tetrazolium reduction assay using a commercially available kit (Promega Aqueous OneStep™). […] By 48 h the cells had largely achieved confluence and became somewhat contact inhibited, thus reducing the difference between control and treatment groups.

[3] = system: gmr-Gal4;UAS-C9orf72polyGR36 flies; experiment: Fly eye neurodegeneration assay, C9orf72 ALS model; format: in vivo, Drosophila melanogaster
Protocol: The base for the food was a cornmeal agar product, Nutri-fly BF (Genesee Scientific, Box of 10, 1-liter bags, Cat #66-112). In a 2 L beaker, 1 L of ultrapure water was heated to […], with the stir bar speed set to 600. To the beaker, one bag of Nutri-fly BF was added in small portions. The beaker was covered to maintain temperature (monitored with an inserted thermometer) while stirring as rapidly as possible until the temperature reached 97° C. The food was stirred at this temperature for 10 minutes using a wooden spoon/spatula, then allowed to cool to approximately 65° C. with continuous stirring (magnetic bar). At 65° C., while maintaining constant stirring, 12 mL of Tegosept was added followed by 7 mL of propionic acid solution. To be used as fly maintenance food, the food was allowed to cool to 55° C. and 4 mL of the food was aliquoted (to a depth of approximately 1 inch) into individual vials with mity drosophila plugs (VWR #75813-162 and #10054-506). For use as a drug delivery vehicle, the food was allowed to cool to room temperature while covered with aluminum foil, then sealed with parafilm stored at 4° C. […] To prepare the drug-infused-food, about half of the calculated food, accurately measured, was added to a 250 mL beaker, followed by the drug (no carrier solvent is used). […]

## CCCCCCC1=C(P(=O)(O)O)N[C@H](C(=O)OCC)CS1 [2-n-hexyl-LKE-P]
RG2 glioma cells [1]; RG2 cells, FIG. 32A
  concentration at which the compound is potent in stimulating autophagy: 0.1 µM
  potency relative to known results for LKE: approximately 10 fold
RG2 glioma cells [1]; RG2 glioma cells, 4 h, 50 nM bafilomycin-A1, western blot
  autophagic flux / autophagy stimulation (LC3-II band in the presence of bafilomycin-A1): stimulate autophagy in RG2 cells
RG2 glioma cells [2]; 24 h, greater than or equal to 1 nM
  fewer cells (reduced replicative capacity) relative to cells treated with no drug: at least 50%
RG2 glioma cells [2]; 48 h
  concentration range of the minimum in cell number: 1 to 10 mM
RG2 glioma cells [2]; first 24 h
  replication of cultures: replicated more slowly in the first 24 h
[3]; GR dipeptides at repeat number of 100 in the eyes
  failure to eclose from the pupa: not able to rescue this phenotype
[3]; polyGR36 in eyes, 1 and 2 mM in food throughout lifespan
  eye phenotype: alleviate the eye phenotype in a concentration-dependent manner
